# Assays:
# [1] = target: T1, human CD38 (Homo sapiens, UniProt P28907); assay: human recombinant CD38 enzyme assay (hydrolysis of NAD+); type: biochemical; details: human recombinant CD38, 0.4 nM enzyme, 62.5 μM NAD+; read-out: hCD38 BioChem IC50
# T1 sequence (P28907 1-300): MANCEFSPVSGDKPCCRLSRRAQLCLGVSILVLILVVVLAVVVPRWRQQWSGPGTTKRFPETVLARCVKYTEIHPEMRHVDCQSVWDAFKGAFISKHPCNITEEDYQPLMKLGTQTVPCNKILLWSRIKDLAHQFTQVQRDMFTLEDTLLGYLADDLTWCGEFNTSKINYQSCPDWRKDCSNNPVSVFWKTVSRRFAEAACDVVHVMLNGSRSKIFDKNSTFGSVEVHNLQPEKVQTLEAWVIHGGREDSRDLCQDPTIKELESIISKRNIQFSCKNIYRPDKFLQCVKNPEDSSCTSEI
# In short: (§1)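 Cell-free recombinant enzyme, NAD+ substrate, 60 min at RT. Stop/detect: ethanol/ADH plus semicarbazide and a CD38 inhibitor (15 min), then NaOH, then resazurin/diaphorase (15 min). Remaining NAD+ read as resorufin fluorescence, Ex/Em 540/590 nm. Inhibition fitted from dose responses.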
# [2] = target: T2, endogenous CD38 in HL60 cells (Homo sapiens, UniProt P28907); assay: cellular CD38 assay in HL60 cells (cellular NAD levels); type: cell-based; details: all-trans retinoic acid, 24 hours, read-out: hCD38 HL60 ATRA NAD Cell Diaphorase IC50
# T2 construct: endogenous in cells; host or cells: HL60 (leukemic cells, treated with all-trans retinoic acid)
# T2 sequence (P28907 1-300): T1 sequence (P28907 1-300)
# In short: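 HL60 cells (20000/well) were treated with compound in DMSO for 24 h. Cellular NAD was then measured by an enzymatic cycling mix (alcohol dehydrogenase, diaphorase, 40 uM resazurin, 10 uM FMN, 3% ethanol, Triton X-100, pH 8.4).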
# [3] = target: T3, mouse CD38 (Mus musculus, UniProt P56528); assay: mouse recombinant CD38 enzyme assay (hydrolysis of NAD+); type: biochemical; details: read-out: mCD38 BioChem IC50
# T3 sequence (P56528 1-304): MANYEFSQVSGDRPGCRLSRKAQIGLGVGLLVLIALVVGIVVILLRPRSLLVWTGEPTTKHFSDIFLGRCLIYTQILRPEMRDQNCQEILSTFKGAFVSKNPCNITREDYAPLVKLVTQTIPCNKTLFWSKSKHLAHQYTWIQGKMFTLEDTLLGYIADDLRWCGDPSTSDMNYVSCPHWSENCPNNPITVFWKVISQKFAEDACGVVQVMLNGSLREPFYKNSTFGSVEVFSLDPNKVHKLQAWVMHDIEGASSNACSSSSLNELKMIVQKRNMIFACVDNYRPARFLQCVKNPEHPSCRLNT
# In short: as §1
IC50 [1],IC50 [2],IC50 [3],Compound
323 nM,9860 nM,52.9 nM,"Cn1cncc1-c1ccnc(C(=O)N[C@H]2C[C@@H](c3ccccc3)C2)n1 [Compound 214, 4-(1-methyl-1H-imidazol-5-yl)-N-((1s,3s)-3-phenylcyclobutyl)pyrimidine-2-carboxamide]"
2 nM,214 nM,1.6 nM,"Cc1cc(-n2ccnc2)nc(C(=O)Nc2ccc(C(F)F)nc2)n1 [Compound 215, N-(6-(difluoromethyl)pyridin-3-yl)-4-(1H-imidazol-1-yl)-6-methylpyrimidine-2-carboxamide]"
66.6 nM,9420 nM,49.3 nM,"O=C(Nc1ccc(C(F)F)nc1)c1nc(O)cc(-n2ccnc2)n1 [Compound 216, N-(6-(difluoromethyl)pyridin-3-yl)-4-hydroxy-6-(1H-imidazol-1-yl)pyrimidine-2-carboxamide]"
36.4 nM,1970 nM,19.7 nM,"COc1ccc([C@H]2C[C@H](NC(=O)c3nccc(-n4ccnc4)n3)C2)cc1 [Compound 217, 4-(1H-imidazol-1-yl)-N-((1r,3r)-3-(4-methoxyphenyl)cyclobutyl)pyrimidine-2-carboxamide]"
25.2 nM,2220 nM,11.6 nM,"COc1ccc([C@H]2C[C@H](NC(=O)c3nccc(-c4cncn4C)n3)C2)cc1 [Compound 218, N-((1r,3r)-3-(4-methoxyphenyl)cyclobutyl)-4-(1-methyl-1H-imidazol-5-yl)pyrimidine-2-carboxamide]"
361 nM,10800 nM,99 nM,"O=C(N[C@H]1C[C@H](Oc2ccccc2)C1)c1nccc(-n2ccnc2)n1 [Compound 219, 4-(1H-imidazol-1-yl)-N-((1r,3r)-3-phenoxycyclobutyl)pyrimidine-2-carboxamide]"
146 nM,4950 nM,52.2 nM,"Cn1cncc1-c1ccnc(C(=O)N[C@H]2C[C@H](Oc3ccccc3)C2)n1 [Compound 220, 4-(1-methyl-1H-imidazol-5-yl)-N-((1r,3r)-3-phenoxycyclobutyl)pyrimidine-2-carboxamide]"
3.6 nM,1130 nM,2.2 nM,"COc1cc(C(=O)Nc2ccc(C(F)(F)F)nc2)nc(-n2ccnc2)c1 [Compound 221, 6-(1H-imidazol-1-yl)-4-methoxy-N-(6-(trifluoromethyl)pyridin-3-yl)picolinamide]"
5.6 nM,707 nM,1.1 nM,"COCCOc1cc(-c2cncn2C)nc(C(=O)Nc2ccc(C(F)F)nc2)n1 [Compound 224, N-(6-(difluoromethyl)pyridin-3-yl)-4-(2-methoxyethoxy)-6-(1-methyl-1H-imidazol-5-yl)pyrimidine-2-carboxamide]"
7 nM,1080 nM,3.8 nM,"COc1cc(C(=O)Nc2ccc(C(F)F)nc2)nc(-c2cncn2C)c1 [Compound 225, N-(6-(difluoromethyl)pyridin-3-yl)-4-methoxy-6-(1-methyl-1H-imidazol-5-yl)picolinamide]"
20.4 nM,5210 nM,12.7 nM,"COc1cc(C(=O)Nc2ccc(C(F)(F)F)nc2)nc(-c2cncn2C)c1 [Compound 226, 4-methoxy-6-(1-methyl-1H-imidazol-5-yl)-N-(6-(trifluoromethyl)pyridin-3-yl)picolinamide]"
9.3 nM,2070 nM,2.4 nM,"Cn1cncc1-c1nc(C(=O)N[C@H]2CC[C@H](C(F)F)CC2)cc(C2CCOCC2)n1 [Compound 227, N-((1r,4r)-4-(difluoromethyl)cyclohexyl)-2-(1-methyl-1H-imidazol-5-yl)-6-(tetrahydro-2H-pyran-4-yl)pyrimidine-4-carboxamide]"
16.2 nM,3880 nM,4.7 nM,"Cn1cncc1-c1nc(C(=O)N[C@H]2CCc3c(F)cccc32)cc(C2CCOCC2)n1 [Compound 228, (S)-N-(4-fluoro-2,3-dihydro-1H-inden-1-yl)-2-(1-methyl-1H-imidazol-5-yl)-6-(tetrahydro-2H-pyran-4-yl)pyrimidine-4-carboxamide]"
11.2 nM,4000 nM,2.5 nM,"Cn1cncc1-c1nc(C(=O)N[C@H]2CCc3cc(F)ccc32)cc(C2CCOCC2)n1 [Compound 229, (S)-N-(5-fluoro-2,3-dihydro-1H-inden-1-yl)-2-(1-methyl-1H-imidazol-5-yl)-6-(tetrahydro-2H-pyran-4-yl)pyrimidine-4-carboxamide]"
4.3 nM,1460 nM,1.7 nM,"Cn1cncc1-c1nc(C(=O)N[C@H]2C[C@H](c3ccccc3)C2)cc(C2CCOCC2)n1 [Compound 230, 2-(1-methyl-1H-imidazol-5-yl)-N-((1r,3r)-3-phenylcyclobutyl)-6-(tetrahydro-2H-pyran-4-yl)pyrimidine-4-carboxamide]"
72.2 nM,10200 nM,9 nM,"COCCO[C@H]1CC[C@H](NC(=O)c2nc(OC)cc(-c3cncn3C)n2)CC1 [Compound 231, 4-methoxy-N-((1r,4r)-4-(2-methoxyethoxy)cyclohexyl)-6-(1-methyl-1H-imidazol-5-yl)pyrimidine-2-carboxamide]"
53.7 nM,7290 nM,8.1 nM,"COCCO[C@H]1CC[C@H](NC(=O)c2nc(C)cc(-c3cncn3C)n2)CC1 [Compound 232, N-((1r,4r)-4-(2-methoxyethoxy)cyclohexyl)-4-methyl-6-(1-methyl-1H-imidazol-5-yl)pyrimidine-2-carboxamide]"
6 nM,1040 nM,1.1 nM,"COCCOc1cc(-c2cncn2C)nc(C(=O)Nc2ccc(C(F)(F)F)nc2)n1 [Compound 233, 4-(2-methoxyethoxy)-6-(1-methyl-1H-imidazol-5-yl)-N-(6-(trifluoromethyl)pyridin-3-yl)pyrimidine-2-carboxamide]"
2.4 nM,557 nM,1.4 nM,"COc1cc(-c2cncn2C)nc(C(=O)Nc2ccc(C(F)(F)F)nc2)n1 [Compound 234, 4-methoxy-6-(1-methyl-1H-imidazol-5-yl)-N-(6-(trifluoromethyl)pyridin-3-yl)pyrimidine-2-carboxamide]"
3.8 nM,376 nM,1.6 nM,"Cc1cc(-c2cncn2C)nc(C(=O)Nc2ccc(C(F)(F)F)nc2)n1 [Compound 235, 4-methyl-6-(1-methyl-1H-imidazol-5-yl)-N-(6-(trifluoromethyl)pyridin-3-yl)pyrimidine-2-carboxamide]"
46.4 nM,1870 nM,27.2 nM,"O=C(N[C@H]1C[C@H](c2ccccc2F)C1)c1nccc(-n2ccnc2)n1 [Compound 236, N-((1r,3r)-3-(2-fluorophenyl)cyclobutyl)-4-(1H-imidazol-1-yl)pyrimidine-2-carboxamide]"
33.8 nM,2200 nM,29.5 nM,"O=C(N[C@H]1C[C@H](c2cccc(F)c2)C1)c1nccc(-n2ccnc2)n1 [Compound 237, N-((1r,3r)-3-(3-fluorophenyl)cyclobutyl)-4-(1H-imidazol-1-yl)pyrimidine-2-carboxamide]"
43.2 nM,2380 nM,40.9 nM,"O=C(N[C@H]1C[C@H](c2ccc(F)cc2)C1)c1nccc(-n2ccnc2)n1 [Compound 238, N-((1r,3r)-3-(4-fluorophenyl)cyclobutyl)-4-(1H-imidazol-1-yl)pyrimidine-2-carboxamide]"
